System: Echinochloa crus-galli
Assay: Test 1-1 Post-emergence Treatment Test
Format: in vivo
Settings: sprayed on whole plants at 1-2 leaf stages, treatment amount 1,000 g/10,000 m^2, after 20 days of the treatment, greenhouse
Description: Here an efficacy for controlling weeds on the present compound was visually observed and evaluated in 11 criteria of 0 to 10 (0 represents no action, 10 represents complete death and the intermediate efficacy were evaluated in 1 to 9 criteria).
Commercial soil for propagation was put in a pot measuring 8 cm in diameter and 6.5 cm in height, and in the pot, seeds of Echinochloa crus-galli were sown, and then covered with soil of about 0.5 cm thickness and the plants were grown in a greenhouse. When the plants were grown to 1-2 leaf stages, a predetermined amount of a chemical diluted solution containing a compound (1-1) was uniformly spayed on the whole plants. Here the chemical diluted solution was prepared by dissolving a predetermined amount of the compound (1-1) in dimethylformamide solution containing 2% of Tween 20 (polyoxyetylene sorbitan fatty acid ester) (manufactured by MP Biomedicals Inc.) and then diluting the solution with deionized water. After spraying, plants were grown in a greenhouse and after 20 days of the treatment, the efficacy for Echinochloa crus-galli was observed and the controlling effect was evaluated.
Similarly, the present compounds (1-2) to (1-11) and (1-13) were also tested.

SMILES: CCc1cc(C)cc(CC)c1C1=C(O)CC(C(C)CS(=O)(=O)c2ccc(C(F)(F)F)cn2)OC1=O (stereo not shown) [(1-13)]
- efficacy for controlling weeds (visually observed, 11 criteria of 0 to 10): ≥ 9

— patent US9758502B2, “Dihydropyrone compounds and herbicides comprising the same” (SUMITOMO CHEMICAL COMPANY, LIMITED, priority 2012, dated 2017)
